Results taken from patent US20140329863A1 (priority 2011, published 2014).
Like-named read-outs stand apart in the source and are kept apart here. Marks after values point to notes of the source that are not given here.

How the values were obtained:
[1] = test system: PrP^Sc in dividing ScN2a-cl3 cells; type: cell-based, mouse; parameters: Dividing ELISA pEC50 (μM) 1st Expt. / Dividing ELISA pEC50 (μM) 2nd Expt. / Dividing ELISA pEC50 (μM) 3rd Expt. / Dividing ELISA pEC50 (μM) Mean: unit not given here
[2] = test system: PrP^Sc in nondividing ScN2a-cl3 cells; type: cell-based, mouse
N2a-cl3 cells [3] = assay: cells; conditions: Mus musculus
N2a-cl3 cells [4] = test system: N2a-cl3 cells
[5] = ScN2a-cl3 dividing cells, 1st determination
[6] = ScN2a-cl3 dividing cells, 2nd determination
[7] = ScN2a-cl3 dividing cells, 3rd determination
[8] = ScN2a-cl3 dividing cells, mean of three determinations
[9] = read-out: Dividing ELISA EC50 (μM) 1st Expt., ScN2a-cl3 dividing cells, 1st determination
[10] = read-out: Dividing ELISA EC50 (μM) 2nd Expt., ScN2a-cl3 dividing cells, 2nd determination
[11] = read-out: Dividing ELISA EC50 (μM) 3rd Expt., ScN2a-cl3 dividing cells, 3rd determination
[12] = read-out: Dividing ELISA EC50 (μM) Mean, ScN2a-cl3 dividing cells, mean of three determinations
[13] = read-out: Non-Dividing ELISA EC50 (μM) Mean (n = 3), ScN2a-c13 non-dividing cells, mean n = 3
[14] = N2a-cl3, read-out: Dividing Calcein EC50 (μM) Mean (n = 3)
[15] = Table 29, 2-AMT analogs tested for potency, usually n = 3 or more

SMILES | Dividing ELISA pEC50 (μM) 1st Expt. [1, 5] | Dividing ELISA pEC50 (μM) 2nd Expt. [1, 6] | Dividing ELISA pEC50 (μM) 3rd Expt. [1, 7] | Dividing ELISA pEC50 (μM) Mean [1, 8] | EC50 [1, 9] | EC50 [1, 10] | EC50 [1, 11] | EC50 [1, 12] | EC50 [2, 13] | EC50 (N2a-cl3 cells [3]; [14]) | melting point | EC50 ([1]; AMT analogs tested for potency) | further results
c1ccc(-c2cc(-c3csc(Nc4ccccn4)n3)on2)cc1 [compound 42, [4-(3-Phenylisoxazol-5-yl)-thiazol-2-yl]pyridin-2-yl-amine] | 6.20 | 6.22 | 6.23 | 6.22 | 0.629 µM | 0.599 µM | 0.585 µM | 0.604 µM | > 32 µM | > 32 µM | 211 to 215 °C |  | 
Cc1ccc2[nH]c3c(c2c1)CCCC3NCCCN(C)C (stereo not drawn) [IND-23308] |  |  |  |  |  |  |  |  |  |  |  |  | Inhibition of Baseline PrP^5c (%) Dividing Cells ELISA ([1]; SPC assay, dividing cells): 88%; EC50 ([1]; read-out: EC50, PrP^Sc ELISA in dividing ScN2a-c13 cells): 1.58 µM; HTS % inhibition ([2]; HTS, nondividing cells): 70%; Inhibition of Baseline PrP^5c (%) Non-dividing Cells ELISA ([2]; SPC assay, nondividing cells): 94^d %; SPC % inhibition ([2]; SPC assays, nondividing cells): 94%; EC50 ([2]; read-out: EC50, PrP^Sc ELISA in stationary-phase (nondividing) cells): 7.5 µM; EC50 (N2a-cl3 cells [3]; N2a-cl3, read-out: potency in cell viability, dividing cells): > 10 µM; EC50 (N2a-cl3 cells [3]; N2a-cl3, read-out: potency in cell viability, stationary-phase cells): > 10 µM; Dividing Cells V (cell viability percentages) (N2a-cl3 cells [4]): 30%; Effect on cell viability (EC50) (N2a-cl3 cells [4]): no effect on cell viability; Non-dividing Cells V (cell viability percentages) (N2a-cl3 cells [4]): 12%
COc1ccc(-c2csc(Nc3cccc(C)n3)n2)cc1OC [compound 4, [4-(3,4-dimethoxyphenyl)-thiazol-2-yl]-(6-methylpyridin-2-yl)-amine] | 5.25 | 5.92 | 5.65 | 5.61 | 5.62 µM | 1.19 µM | 2.22 µM | 3.01 µM | > 32 µM | > 32 µM | 264 to 266 °C |  | 
Cc1cccc(Nc2nc(-c3cc(-c4ccccc4)no3)cs2)n1 [compound 44, (6-Methylpyridin-2-yl)-[4-(3-phenylisoxazol-5-yl)-thiazol-2-yl]-amine] | 6.03 | 6.13 | 6.10 | 6.09 | 0.926 µM | 0.733 µM | 0.794 µM | 0.818 µM | > 32 µM | > 32 µM | 291 to 293 °C |  | 
c1ccc(-c2ccc(-c3csc(Nc4cc5ccccc5cn4)n3)s2)nc1 [compound 34, Isoquinolin-3-yl-[4-(5-pyridin-2-yl-thiophen-2-yl)-thiazol-2-yl]-amine] | 5.65 | 5.79 | 5.67 | 5.70 | 2.25 µM | 1.61 µM | 2.16 µM | 2.01 µM | > 32 µM | > 32 µM | 246 to 248 °C |  | 
COc1ccc(-c2csc(NC(=O)c3cc4ccccc4cn3)n2)cc1OC [compound 47, Isoquinoline-3-carboxylic acid [4-(3,4-dimethoxyphenyl)-thiazol-2-yl]amide] | 5.01 | 5.41 | 4.97 | 5.13 | 9.81 µM | 3.93 µM | 10.8 µM | 8.18 µM | > 10 µM | > 10 µM | 228 to 230 °C |  | 
COc1ccc(-c2csc(Nc3ccc4ccccc4c3)n2)cc1OC [compound 19, [4-(3,4-dimethoxyphenyl)-thiazol-2-yl]-naphthalen-2-yl-amine] | 6.36 | 6.50 | 6.38 | 6.41 | 0.436 µM | 0.317 µM | 0.413 µM | 0.389 µM | > 32 µM | > 32 µM | 221 to 224 °C |  | 
COc1ccc(-c2csc(Nc3ccc(C)cn3)n2)c(OC)c1 [IND74, [4-(2,4-Dimethoxy-phenyl)-thiazol-2-yl]-(5-methyl-pyridin-2-yl)-amine] |  |  |  |  |  |  |  |  |  |  | 157 to 158 °C | 3.13 µM | EC50 [1, 15]: 3.13 µM
Cc1ccc(Nc2nc(-c3cccc(C#N)c3)cs2)nc1 [IND38, 3-[2-(5-Methyl-pyridin-2-ylamino)-thiazol-4-yl]-benzonitrile] |  |  |  |  |  |  |  |  |  |  | 268 to 272 °C | 2.29 µM | EC50 [1, 15]: 2.29 µM
Cc1ccc(Nc2nc(-c3ccc(OC(F)(F)F)cc3)cs2)nc1 [IND26, (5-Methyl-pyridin-2-yl)-[4-(4-trifluoromethoxy-phenyl)-thiazol-2-yl]-amine] |  |  |  |  |  |  |  |  |  |  | 205 to 207 °C | > 10 µM | EC50 [1, 15]: > 10 µM
COc1ccc(Nc2nc(-c3cc4ccccc4o3)cs2)nc1 [IND121, (4-Benzofuran-2-yl-thiazol-2-yl)-(5-methoxy-pyridin-2-yl)-amine] |  |  |  |  |  |  |  |  |  |  | 185 to 186 °C | 1.74 µM | 
COc1cc2c(cc1OC)-c1nc(Nc3ccc(C)cn3)sc1C2 [compound 39, (5,6-Dimethoxy-8H-indeno-[1,2-d]thiazol-2-yl)-(5-methylpyridin-2-yl)-amine] | 5.46 | 5.23 | 5.13 | 5.27 | 3.45 µM | 5.93 µM | 7.38 µM | 5.59 µM | > 32 µM | > 32 µM |  |  | 
Cc1ccnc(Nc2nc(-c3ccc4c(c3)OCCO4)cs2)c1 [IND57, [4-(2,3-Dihydro-benzo[1,4]dioxin-6-yl)-thiazol-2-yl]-(4-methyl-pyridin-2-yl)-amine] |  |  |  |  |  |  |  |  |  |  | 230 to 240 °C | > 10 µM | EC50 [1, 15]: > 10 µM
COc1ccnc(Nc2nc(-c3ccncc3)cs2)c1 [IND111, (4-Methoxy-pyridin-2-yl)-(4-pyridin-4-yl-thiazol-2-yl)-amine] |  |  |  |  |  |  |  |  |  |  | 190 to 192 °C | 0.605 µM | 
Cc1ccnc(Nc2nc(-c3cc(-c4ccccc4)no3)cs2)c1 [compound 43, (4-Methylpyridin-2-yl)-[4-(3-phenylisoxazol-5-yl)-thiazol-2-yl]-amine] | 5.98 | 5.96 | 5.78 | 5.90 | 1.05 µM | 1.1 µM | 1.67 µM | 1.28 µM | > 32 µM | > 32 µM |  |  | 
COc1ccc(Nc2nc(-c3ccncc3)cs2)nc1 [IND119, (5-Methoxy-pyridin-2-yl)-(4-pyridin-4-yl-thiazol-2-yl)-amine] |  |  |  |  |  |  |  |  |  |  | 213 to 214 °C | 1.32 µM | 
COc1ccc(Nc2nc(-c3ccc(-c4ccccc4)cc3)cs2)nc1 [IND122, (4-Biphenyl-4-yl-thiazol-2-yl)-(5-methoxy-pyridin-2-yl)-amine] |  |  |  |  |  |  |  |  |  |  | 212 to 213 °C | 0.432 µM | 
Cc1ccnc(Nc2nc(-c3ccc(OC(F)(F)F)cc3)cs2)c1 [IND78, (4-Methyl-pyridin-2-yl)-[4-(4-trifluoromethoxy-phenyl)-thiazol-2-yl]-amine] |  |  |  |  |  |  |  |  |  |  | 275 to 282 °C | > 32 µM | EC50 [1, 15]: > 32 µM
